Activity data for ten compounds are collected here from ChEMBL document CHEMBL4616622, “HSP70 induction by bleomycin metal core analogs” (Bioorg Med Chem Lett, 2020).

Calls of active or inactive are those of the source. The rule behind the calls is not given here. A value given as a limit tells only on which side of the number the result lay.

In series [1] the test system is PC-12. Put plainly: Induction of HSP70 expression in rat PC12 cells at 10 uM incubated for 4 hrs by Western blot analysis. In kind it is functional, cell-based.
Series [2] concerns PC-12. As to the kind of experiment: Induction of HSP70 expression in rat PC12 cells at 7.5 uM incubated for 4 hrs by Western blot analysis. In kind it is functional, cell-based. (In western blotting, separated proteins are transferred to a membrane and probed.)
Series [3] has as its system PC-12. Put plainly: Induction of HSP70 expression in rat PC12 cells at 10 uM incubated for 24 hrs by Western blot analysis. It is filed as functional, cell-based.
Series [4] concerns PC-12. As to the kind of experiment: Induction of HSP70 expression in rat PC12 cells at 10 to 20 uM incubated for 4 hrs by Western blot analysis. In kind it is functional, cell-based.
Series [5] has as its system PC-12. Put plainly: Cytotoxicity against rat PC12 cells assessed as reduction in cell viability at 30 uM incubated for 1 day by MTT assay relative to control. It is filed as cell-based. As to conditions: pc-12, 24 h. (Tetrazolium dyes change colour on reduction, which living cells bring about.)
The subject of series [6] is PC-12. Put plainly: Induction of HSP70 expression in rat PC12 cells at 10 uM by Western blot analysis. As to conditions: TDE = time-dependent effect. It is filed as functional, cell-based.
Series [7] relates to PC-12. Put plainly: Induction of HSP70 in rat PC12 cells assessed as upregulation of HSP70 mRNA at 10 uM incubated for 4 hrs by qRT-PCR analysis. In kind it is cell-based. A general note: Quantitative PCR measures a nucleic acid by following its amplification.
For series [8], the system named is PC-12. Put plainly: Induction of HSP70 expression in rat PC12 cells at 10 uM incubated for 4 hrs in presence of human betaNGF by Western blot analysis. It is filed as functional, cell-based.
For series [9], the system named is PC-12. Put plainly: Induction of HSP70 expression in rat PC12 cells at 5 to 30 uM incubated for 4 hrs by Western blot analysis. In kind it is functional, cell-based.

As for `COC(=O)[C@H](Cc1c[nH]cn1)NCc1cc(N(C)C)cc(CN[C@@H](Cc2cn(C)cn2)C(=O)OC)n1`, in the series on PC-12 [1], the outcome was inactive.
Regarding `COC(=O)[C@H](Cc1c[nH]cn1)NCc1cc(N(C)C)cc(CN[C@@H](Cc2cn(C(c3ccccc3)(c3ccccc3)c3ccccc3)cn2)C(=O)OC)n1`, the outcome with PC-12 [2] was inactive. The outcome in the series with PC-12 [3], in the series on PC-12 [4], in the series on PC-12 [1], in the series with PC-12 [7] and with PC-12 [8] was Active. Further, the Activity with PC-12 [5] is greater than 50%; in the series on PC-12 [6] it was “Tde”.
With `COC(=O)[C@H](Cc1cn(C(c2ccccc2)(c2ccccc2)c2ccccc2)cn1)NCc1cc(N(C)C)cc(CN[C@@H](Cc2cn(C(c3ccccc3)(c3ccccc3)c3ccccc3)cn2)C(=O)OC)n1`, in the series on PC-12 [1], the result was inactive.
As for BLEOMYCIN, the outcome with PC-12 [1] and in the series with PC-12 [9] was inactive.
Take `COC(=O)[C@H](Cc1c[nH]cn1)NCc1cccc(CN[C@@H](Cc2cn(C(c3ccccc3)(c3ccccc3)c3ccccc3)cn2)C(=O)OC)c1`: the result in the series on PC-12 [1] was inactive.
Regarding `COC(=O)[C@H](Cc1cn(Cc2ccccc2)cn1)NCc1cc(N(C)C)cc(CN[C@@H](Cc2cn(Cc3ccccc3)cn2)C(=O)OC)n1`, the result in the series with PC-12 [1] was inactive.
As to `COC(=O)[C@H](Cc1c[nH]cn1)NCc1cccc(CN[C@@H](Cc2cn(C(c3ccccc3)(c3ccccc3)c3ccccc3)cn2)C(=O)OC)n1`, the result in the series on PC-12 [1] and in the series with PC-12 [8] was Active.
Turning to TEPRENONE, the result in the series on PC-12 [1] was inactive.
In the case of `COC(=O)[C@H](Cc1c[nH]cn1)NCc1cc(N(C)C)cc(CN[C@@H](Cc2cn(Cc3ccccc3)cn2)C(=O)OC)n1`, the result with PC-12 [1] was inactive.
As to `COC(=O)[C@H](Cc1cn(C)cn1)NCc1cc(N(C)C)cc(CN[C@@H](Cc2cn(C)cn2)C(=O)OC)n1`, the outcome in the series with PC-12 [1] was inactive.
